Results reported in the supplement of paper PMC10307832.

How the values were obtained:
Assay in all cases: relative viability (nuclei count vs DMSO), 5 days (fraction); higher = more cells survive
[1] = system: A549
Summary of the method: (§1)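 Lung cancer cell lines in 1536-well plates got either a single drug or a fixed anchor-drug dose together with five library-drug doses (not always all listed) in √10 steps, by pin tool, on the day after seeding. Nuclei were counted after 5 days, and relative viability is the treated-to-vehicle ratio of nuclei counts. Values are medians of duplicate plates.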

[2] = system: Calu-6
Summary of the method: as §1

[3] = system: EBC-1
Summary of the method: as §1

[4] = system: HCC-78
Summary of the method: as §1

[5] = system: IA-LM
Summary of the method: as §1

[6] = system: NCI-H1299
Summary of the method: as §1

[7] = system: NCI-H1703
Summary of the method: as §1

[8] = system: NCI-H2009
Summary of the method: as §1

[9] = system: NCI-H358
Summary of the method: as §1

[10] = system: NCI-H460
Summary of the method: as §1

[11] = system: NCI-H661
Summary of the method: as §1

Q: Which results are given for Cc1sc2c(c1C)C(c1ccc(Cl)cc1)=N[C@@H](CC(=O)OC(C)(C)C)c1nnc(C)n1-2 [JQ1] + Cc1nc(NC(=O)N2CCC[C@H]2C(N)=O)sc1-c1ccnc(C(C)(C)C(F)(F)F)c1 [Alpelisib] (partner 2 µM)?
A: relative viability ([1]; first compound 0.04 µM): 0.785; relative viability ([1]; first compound 0.1265 µM): 0.644; relative viability ([1]; first compound 0.4 µM): 0.509; relative viability ([1]; first compound 1.265 µM): 0.401; relative viability ([1]; first compound 4 µM): 0.262; relative viability ([2]; first compound 0.04 µM): 0.955; relative viability ([2]; first compound 0.1265 µM): 0.815; relative viability ([2]; first compound 0.4 µM): 0.818; relative viability ([2]; first compound 1.265 µM): 0.589; relative viability ([2]; first compound 4 µM): 0.4; relative viability ([3]; first compound 0.04 µM): 0.885; relative viability ([3]; first compound 0.1265 µM): 0.454; relative viability ([3]; first compound 0.4 µM): 0.226; relative viability ([3]; first compound 1.265 µM): 0.142; relative viability ([3]; first compound 4 µM): 0.149; relative viability ([4]; first compound 0.04 µM): 0.336; relative viability ([4]; first compound 0.1265 µM): 0.34; relative viability ([4]; first compound 0.4 µM): 0.281; relative viability ([4]; first compound 1.265 µM): 0.234; relative viability ([4]; first compound 4 µM): 0.252; relative viability ([5]; first compound 0.04 µM): 0.772; relative viability ([5]; first compound 0.1265 µM): 0.324; relative viability ([5]; first compound 0.4 µM): 0.143; relative viability ([5]; first compound 1.265 µM): 0.0875; relative viability ([5]; first compound 4 µM): 0.103; relative viability ([6]; first compound 0.04 µM): 1.02; relative viability ([6]; first compound 0.1265 µM): 0.947; relative viability ([6]; first compound 0.4 µM): 0.951; relative viability ([6]; first compound 1.265 µM): 0.514; relative viability ([6]; first compound 4 µM): 0.353; relative viability ([7]; first compound 0.04 µM): 0.315; relative viability ([7]; first compound 0.1265 µM): 0.335; relative viability ([7]; first compound 0.4 µM): 0.297; relative viability ([7]; first compound 1.265 µM): 0.26; relative viability ([7]; first compound 4 µM): 0.321; relative viability ([8]; first compound 0.04 µM): 1.09; relative viability ([8]; first compound 0.1265 µM): 0.968; relative viability ([8]; first compound 0.4 µM): 0.697; relative viability ([8]; first compound 1.265 µM): 0.32; relative viability ([8]; first compound 4 µM): 0.268; relative viability ([9]; first compound 0.04 µM): 0.761; relative viability ([9]; first compound 0.1265 µM): 1.05; relative viability ([9]; first compound 0.4 µM): 0.93; relative viability ([9]; first compound 1.265 µM): 0.515; relative viability ([9]; first compound 4 µM): 0.527; relative viability ([10]; first compound 0.04 µM): 0.47; relative viability ([10]; first compound 0.1265 µM): 0.344; relative viability ([10]; first compound 0.4 µM): 0.257; relative viability ([10]; first compound 1.265 µM): 0.0483; relative viability ([10]; first compound 4 µM): 0.0414; relative viability ([11]; first compound 0.04 µM): 0.524; relative viability ([11]; first compound 0.1265 µM): 0.529; relative viability ([11]; first compound 0.4 µM): 0.71; relative viability ([11]; first compound 1.265 µM): 0.549; relative viability ([11]; first compound 4 µM): 0.465
